Like-named read-outs stand apart in the source and are kept apart here.
Experiments:
[1] = target: METTL3/METTL14 (Homo sapiens, UniProt Q86U44); test: METTL3-14 Standard Enzyme Assay (METTL3 biochemical assay)
How it was run: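 Tritium transfer from ³H-SAM (100 nM) to biotinylated RNA (100 nM) captured on streptavidin flashplates and counted by scintillation. Enzyme complex (2.5 nM) with compound, 5 min preincubation, 30 min reaction at ambient temperature, HEPES pH 7.5 buffer, stopped by excess unlabeled SAM.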

[2] = target: T1, METTL16 (Homo sapiens, UniProt Q86W50); test: METTL16 Assay (METTL16 biochemical assay); details: read-out: METTL16 IC50
T1 sequence (Q86W50 1-562): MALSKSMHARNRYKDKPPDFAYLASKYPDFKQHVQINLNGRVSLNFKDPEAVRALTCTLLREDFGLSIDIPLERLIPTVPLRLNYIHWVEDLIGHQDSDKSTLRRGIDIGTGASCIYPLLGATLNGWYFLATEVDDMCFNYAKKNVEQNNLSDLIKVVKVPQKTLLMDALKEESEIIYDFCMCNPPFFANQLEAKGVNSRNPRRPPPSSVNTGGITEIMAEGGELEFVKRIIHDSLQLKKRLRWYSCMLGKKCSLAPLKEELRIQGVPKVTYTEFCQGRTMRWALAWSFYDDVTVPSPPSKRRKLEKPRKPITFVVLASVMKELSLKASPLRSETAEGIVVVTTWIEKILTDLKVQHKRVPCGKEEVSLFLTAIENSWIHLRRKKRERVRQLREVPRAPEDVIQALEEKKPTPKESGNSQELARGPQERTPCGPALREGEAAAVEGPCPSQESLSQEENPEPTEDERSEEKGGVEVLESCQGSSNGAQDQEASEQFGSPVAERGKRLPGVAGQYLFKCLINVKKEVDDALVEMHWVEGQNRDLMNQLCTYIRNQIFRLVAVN
How it was run: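 Radiometric methyltransferase reaction at ambient temperature in 20 mM HEPES pH 7.5, 50 mM KCl, 1 mM DTT, with 100 nM enzyme preincubated 5 min with compound. It was started with 50 nM 3′-biotinylated RNA, 200 nM 3H-SAM plus 800 nM cold SAM, run 20 min, then quenched with excess cold SAM. Product was captured on streptavidin flashplates and scintillation-counted.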

[3] = target: PRMT5-MEP50 (Homo sapiens, UniProt O14744); test: PRMT5 Assay (PRMT5 biochemical assay)
How it was run: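 Radiometric methyltransferase read-out: after 60 min reaction, excess unlabelled SAM (15 μM) stops turnover and biotinylated H4 peptide (100 nM) carrying 3H-methyl from 250 nM 3H-SAM is captured on streptavidin flashplates (2 h, 25° C) for scintillation counting. Enzyme, 2.5 nM PRMT5-MEP50, was preincubated 5 min with compound in pH 8.0 Tris buffer with DTT and Tween.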

[4] = tested on: m6A in cellular mRNA of MOLM-13 cells; test: m6A-mRNA LC-MS/MS Assay (m6A cellular assay); type: cell-based; details: Homo sapiens, MOLM-13, read-out: m^6A IC50
Method: Cells were harvested by centrifugation followed by mRNA extraction using DIRECT Dynabeads mRNA DIRECT kit (Life Technologies). mRNA was quantified on NanoDrop spectrophotometer (Thermo Fisher Scientific) and digested into single nucleosides using Nucleoside Digestion Mix (New England Biolabs). […] Quantification is performed in comparison with the standard curve, obtained from pure nucleoside standards (Selleck Chemicals) running with the same batch of samples. Percentage m^6A in cellular mRNA is calculated as 100*(m^6A/A).

[5] = tested on: MOLM-13 cells; test: MOLM-13 48 Hour Cell Proliferation Assay; type: cell-based; details: Homo sapiens
How it was run: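 IC50 derived by 4-parameter logistic regression of CellTiter-Glo luminescence, scaled between DMSO (0% death) and staurosporine (100% death) controls. Compounds applied for 48 h at 37 °C as 10-point, 4-fold dilutions, 0.25% DMSO final, to MOLM-13 cells pre-seeded overnight in RPMI 1640 plus 10% FBS.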

[6] = target: METTL1/WDR4 (Homo sapiens, UniProt Q9UBP6); test: METTL1 Assay (METTL1 biochemical assay)
How it was run: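 Radiometric methyltransfer by METTL1/WDR4 (6.25 nM f.c., 5 min preincubation) at ambient temperature in HEPES pH 7.5, KCl, MgCl2, DTT; started with 25 nM 3′-biotinylated RNA and 60 nM 3H-SAM, run 20 min, quenched with 15 μM cold SAM. Product captured on streptavidin flashplates (2 h, 25° C), counted by scintillation.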

[7] = tested on: MOLM-13 cells; test: MOLM-13 96 Hour Cell Proliferation Assay; type: cell-based; details: Homo sapiens, MOLM-13, 96 h
How it was run: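 MOLM-13 cells in RPMI 1640 with 10% FBS were plated overnight at 37 °C, then exposed to compound dilutions at 0.25% DMSO final for 96 h. Viability was read by CellTiter-Glo luminescence, normalised to staurosporine (100% death) and DMSO (0% death) controls, and IC50 was fitted by 4-parameter logistic regression.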

[8] = METTL3 biochemical assay; read-out: METTL3 IC50
[9] = PRMT5 biochemical assay; read-out: PRMT5 IC50

PRMT5-MEP50, sequence (O14744 whole entry): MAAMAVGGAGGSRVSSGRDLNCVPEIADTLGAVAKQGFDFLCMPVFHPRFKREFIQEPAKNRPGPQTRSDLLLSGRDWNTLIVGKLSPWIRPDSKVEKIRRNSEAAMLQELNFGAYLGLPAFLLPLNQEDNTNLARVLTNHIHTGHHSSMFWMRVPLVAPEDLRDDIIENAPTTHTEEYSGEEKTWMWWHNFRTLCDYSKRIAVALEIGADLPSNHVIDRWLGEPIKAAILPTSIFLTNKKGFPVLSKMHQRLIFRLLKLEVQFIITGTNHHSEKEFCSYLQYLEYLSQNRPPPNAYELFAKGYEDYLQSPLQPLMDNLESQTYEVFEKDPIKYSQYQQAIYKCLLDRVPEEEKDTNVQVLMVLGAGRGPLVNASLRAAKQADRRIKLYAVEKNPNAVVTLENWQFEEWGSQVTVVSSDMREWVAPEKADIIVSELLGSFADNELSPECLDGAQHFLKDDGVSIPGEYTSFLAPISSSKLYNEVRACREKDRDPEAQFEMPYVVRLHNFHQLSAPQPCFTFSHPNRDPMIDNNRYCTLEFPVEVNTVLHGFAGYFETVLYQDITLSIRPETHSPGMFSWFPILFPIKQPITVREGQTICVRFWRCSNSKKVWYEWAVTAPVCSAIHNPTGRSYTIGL
PRMT5-MEP50, sequence (Q9BQA1 whole entry partner): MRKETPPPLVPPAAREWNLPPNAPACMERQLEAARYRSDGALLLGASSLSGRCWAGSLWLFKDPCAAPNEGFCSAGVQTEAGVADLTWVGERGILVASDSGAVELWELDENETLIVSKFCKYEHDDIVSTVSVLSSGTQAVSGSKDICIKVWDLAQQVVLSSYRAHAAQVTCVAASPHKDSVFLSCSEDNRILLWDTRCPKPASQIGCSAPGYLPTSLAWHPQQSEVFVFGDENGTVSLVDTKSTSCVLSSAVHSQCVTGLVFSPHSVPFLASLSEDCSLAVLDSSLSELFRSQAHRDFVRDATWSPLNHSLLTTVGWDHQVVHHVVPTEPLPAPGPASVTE
METTL3/METTL14, sequence (Q86U44 whole entry, species assumed): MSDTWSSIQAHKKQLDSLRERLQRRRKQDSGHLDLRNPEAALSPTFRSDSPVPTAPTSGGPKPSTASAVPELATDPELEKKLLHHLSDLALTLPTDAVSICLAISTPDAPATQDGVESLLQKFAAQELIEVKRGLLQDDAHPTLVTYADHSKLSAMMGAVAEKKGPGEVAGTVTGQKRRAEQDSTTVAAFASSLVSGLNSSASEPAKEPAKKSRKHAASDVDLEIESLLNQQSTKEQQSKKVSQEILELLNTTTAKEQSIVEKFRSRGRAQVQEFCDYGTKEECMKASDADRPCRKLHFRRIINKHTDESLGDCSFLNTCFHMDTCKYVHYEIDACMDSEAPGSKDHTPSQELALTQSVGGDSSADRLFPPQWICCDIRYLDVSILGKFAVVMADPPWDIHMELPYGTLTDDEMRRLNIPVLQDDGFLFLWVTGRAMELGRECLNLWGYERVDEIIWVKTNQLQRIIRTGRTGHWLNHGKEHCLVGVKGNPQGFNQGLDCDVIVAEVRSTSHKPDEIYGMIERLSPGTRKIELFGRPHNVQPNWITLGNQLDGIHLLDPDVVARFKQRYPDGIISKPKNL
METTL3/METTL14, sequence (Q9HCE5 whole entry partner, species assumed): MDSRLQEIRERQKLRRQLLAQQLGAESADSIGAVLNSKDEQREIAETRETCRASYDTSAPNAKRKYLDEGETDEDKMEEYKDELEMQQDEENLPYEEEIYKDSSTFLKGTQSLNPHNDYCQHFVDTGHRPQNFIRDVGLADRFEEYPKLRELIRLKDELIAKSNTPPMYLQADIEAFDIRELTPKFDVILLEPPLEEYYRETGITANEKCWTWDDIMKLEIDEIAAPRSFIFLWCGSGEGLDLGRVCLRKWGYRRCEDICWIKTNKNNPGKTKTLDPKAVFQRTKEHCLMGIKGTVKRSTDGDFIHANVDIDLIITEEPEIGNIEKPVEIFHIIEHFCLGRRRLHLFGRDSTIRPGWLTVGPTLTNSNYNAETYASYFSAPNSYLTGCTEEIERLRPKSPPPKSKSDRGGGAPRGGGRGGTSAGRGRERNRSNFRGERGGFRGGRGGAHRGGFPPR
METTL1/WDR4, sequence (Q9UBP6 whole entry, species assumed): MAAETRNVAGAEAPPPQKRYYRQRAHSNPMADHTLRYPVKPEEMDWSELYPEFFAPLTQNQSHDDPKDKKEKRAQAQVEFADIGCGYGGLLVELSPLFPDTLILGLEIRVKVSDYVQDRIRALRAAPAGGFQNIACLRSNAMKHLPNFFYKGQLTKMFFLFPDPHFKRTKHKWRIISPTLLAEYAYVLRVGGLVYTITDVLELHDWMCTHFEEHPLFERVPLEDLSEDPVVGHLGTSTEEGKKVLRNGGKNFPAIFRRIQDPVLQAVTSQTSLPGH
METTL1/WDR4, sequence (P57081 whole entry partner, species assumed): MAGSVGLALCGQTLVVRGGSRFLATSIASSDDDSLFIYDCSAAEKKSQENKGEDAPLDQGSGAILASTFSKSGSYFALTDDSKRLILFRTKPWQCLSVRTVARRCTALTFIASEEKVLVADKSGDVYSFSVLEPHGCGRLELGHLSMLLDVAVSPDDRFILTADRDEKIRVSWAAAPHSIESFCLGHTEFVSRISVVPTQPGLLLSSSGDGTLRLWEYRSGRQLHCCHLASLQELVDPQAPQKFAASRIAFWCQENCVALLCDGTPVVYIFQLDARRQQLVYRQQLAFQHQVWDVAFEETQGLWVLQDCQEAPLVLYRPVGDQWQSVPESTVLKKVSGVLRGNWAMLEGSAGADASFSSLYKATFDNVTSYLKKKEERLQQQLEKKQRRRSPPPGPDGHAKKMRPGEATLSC

Row | Structure (SMILES) | IC50 ([1]; read-out: METTL3 IC50; METTL3 biochemical assay) | IC50 [2] | IC50 ([3]; read-out: PRMT5 IC50; PRMT5 biochemical assay) | IC50 [4] | IC50 [5] | IC50 [6] | IC50 [1, 8] | IC50 [3, 9] | IC50 [7]
1 | CNc1ccc2ccc(OC[C@H]3O[C@@H](n4cc(-c5cn(C)cn5)c5c(N)ncnc54)[C@@H](F)[C@@H]3O)cc2n1 [I-28] | < 10 nM | > 1000 nM | 100 to 1000 nM | 1000 to 10000 nM | 1000 to 10000 nM | – | – | – | –
2 | CNc1ccc2ccc(CC[C@H]3C[C@@H](n4cc(CO)c5c(N)ncnc54)[C@H](O)[C@@H]3O)cc2n1 [I-52, (1R,2S,3R,5S)-3-[4-amino-5-(hydroxymethyl)-7H-pyrrolo[2,3-d]pyrimidin-7-yl]-5-{2-[2-(methylamino)quinolin-7-yl]ethyl}cyclopentane-1,2-diol] | – | > 1000 nM | – | 1000 to 10000 nM | – | > 1000 nM | < 10 nM | < 10 nM | –
3 | CCNc1ccc2ccc(OC[C@H]3O[C@@H](n4cc(Cl)c5c(N)ncnc54)[C@@H](F)[C@@H]3O)cc2n1 [I-234] | – | – | – | 1000 to 10000 nM | 1000 to 10000 nM | > 1000 nM | < 10 nM | 10 to 100 nM | 1000 to 10000 nM

— US20230027361A1, “METTL3 MODULATORS” (priority 2019, published 2023)
